The experiment relates to HER2 receptor. Nature of the experiment: Western blot assay for HER2 targeting. Particulars: BT474, 1 h; 1 μM DOX, 0.02 μM III, 1 μM Herceptin. The class given is cell-based.

SMILES strings stand for the structures.

Experimental findings from patent US12383629B2, “DNA-affibody-drug nanoparticles for inhibiting the metastasis of cancer cells overexpressing HER2” (Arizona Board of Regents on behalf of Arizona State …, priority 2019, dated 2025) are described below.

Experimental: Western Blot Analysis—BT474 cells (50,000 cells/mL) were seeded in a 6-well cell culture plate and incubated in 1 mL of Gibco® RPMI 1640 medium supplemented with 10% fetal bovine serum (FBS) and 1% antibiotic-antimycotic mix antibiotic supplement at 37° C. for 24 h in a 5% CO2 atmosphere. […] The cells were washed with 1 mL 1×PBS buffer, and treated with 150 μL Cellstripper® non-enzymatic cell dissociation solution. After centrifugation at 500×g for 3 min, the cell pellets were washed with 150 μL 1×PBS buffer and treated with 60 μL, of 1×RIPA lysis buffer containing protease and phosphatase inhibitor cocktail (Sigma-Aldrich). After three cycle of freeze, thaw and sonication following by centrifugation at 15,000×g for 2 min at 4° C., the clear supernatant was collected.
Total protein concentration was measured using a BCA kit (Thermo Fisher Scientific). NuPAGE LDS Sample Buffer (4×) and NuPAGE Reducing Agent (10×) was added to the lysate which was denatured at 70° C. for 5 min. Equal amounts of lysates (25 μg) were loaded on a 4%-12% SDS-polyacrylamide Bis-Tris gels (Invitrogen) according to the manufacturer's recommendations and then proteins were transferred to nitrocellulose membranes. […]

For `COc1cccc2c1C(=O)c1c(O)c3c(c(O)c1C2=O)C[C@@](O)(C(=O)CO)C[C@@H]3O[C@H]1C[C@H](N)[C@H](O)[C@H](C)O1` [DOX, doxorubicin], the “level of phosphorylated HER2 (Y1221/1222)” value is reported as “did not change”.
